Assay results reported in patent publication US9296778B2, “3′,5′-cyclic phosphate prodrugs for HCV infection” (Idenix Pharmaceuticals, Inc., priority 2012, dated 2016).

What was measured:
HCV genotype 1b replicon = assay: HCV Replicon Assay; format: cell-based; conditions: Zluc cells (Huh-7-derived, HCV genotype 1b replicon, luciferase reporter), 72 hours; read-out: HCV Replicon EC50
Method: Huh-7-derived cell line (Zluc) that harbors an HCV genotype 1b replicon and a luciferase reporter gene was grown in Dulbecco's Modified Eagle Medium (DMEM) supplemented with 10% fetal bovine serum, 2 mM GlutaMAX, 1% MEM nonessential amino acids, 100 IU/mL penicillin, 100 μg/mL streptomycin, and 0.5 mg/mL Geneticin® (G418). For dose response testing the cells were seeded in 96-well plates at 7.5×10^3 cells per well in a volume of 50 μL, and incubated at 37° C./5% CO2. Drug solutions were made up freshly in Huh-7 media as 2× stocks. Ten additional 5-fold dilutions were prepared from these stocks in DMEM without G418. At least three hours after Zluc cells were seeded, drug treatment was initiated by adding 50 μL of drug dilutions to the plates in duplicate. Final concentrations of drug ranged from 100 μM to […]. Cells were then incubated at 37° C./5% CO2. Alternatively, compounds were tested at two concentrations (1 μM and 10 μM). […] For this, media was removed from the plates via gentle tapping. Fifty microliters of ONE-glo luciferase assay reagent was added to each well. The plates were shaken gently for 3 min at room temperature and luminescence was measured on a Victor^3 V 1420 multilabel counter (Perkin Elmer) with a 1 second read time using a 700 nm cut-off filter. The EC50 values were calculated from dose response curves from the resulting best-fit equations determined by Microsoft Excel and XLfit 4.1 software. When screening at two fixed concentrations, the results were expressed as % inhibition at 1 μM and 10 μM.

Zluc cells = assay: cytotoxicity evaluation (CellTiter-Blue Cell Viability Assay); conditions: read-out: HCV Replicon CC50; Zluc cells, CellTiter-Blue
fresh human hepatocytes = assay: Release of active metabolite in fresh human hepatocytes; format: in vitro ADME; conditions: 10 μM compound; for FHH TP Cmax: fresh human hepatocytes; for FHH TP AUC: fresh human hepatocytes, 6, 24 and 48 hours
Method: (§1) Plates of fresh human and mouse hepatocytes were obtained on ice. The medium was removed and replaced with hepatocyte culture medium (William's E supplemented with penicillin-streptomycin, 1% L-glutamine, 1% insulin-transferrin-selenium and 0.1 μM Dexamethasone (Invitrogen) or with Invitro GRO HI medium complemented with Torpedo antibiotics (Celsis)). Cells were left overnight in an incubator at 37° C. to acclimatize to culture and the medium.
(§2) Hepatocyte incubations were conducted at a final volume of 0.5 mL hepatocyte culture medium/well (0.8 million cells/well for human and 0.5 million cells/well for mouse; 12 well plate no overlay, collagen coat). Culture medium from overnight incubation of cells was removed and replaced with fresh medium, pre-warmed to 37° C., containing 10 μM of test compound from a stock solution in DMSO (final DMSO concentration was 0.1%). At each specific time point, incubation medium was removed and cell monolayers were carefully washed two times with ice-cold PBS. Following the last wash, all PBS was carefully removed and 1.0 mL of extraction solution (ice-cold 70% methanol/30% water) added. Cells were scraped off and suspended in the extraction solution, transferred to 2 mL polypropylene microfuge tubes and intracellular contents extracted overnight at −20° C.
(§3) After the overnight treatment the cellular extracts were prepared by centrifugation at 16,000×g for 10 min to remove cellular debris. The remaining sample was then dried using a refrigerated centrivap concentrator. Dry extracts were reconstituted in 1000 μL of HPLC-grade water and centrifuged at 16,000×g for 10 min. Aliquots (100 μL each) of the supernatant were transferred into a 96 well plate and internal standard (4 ng/mL final concentration) was added as the internal standard (IS) for LC-MS/MS analysis.
(§4) The incubation time points were 6, 24 and 48 hours for human hepatocytes and 1, 4, 8, 12 and 24 hours for mouse hepatocytes.

[1] = Stability in fresh human whole blood; format: in vitro ADME; conditions: 0.5 μM, percent unchanged test compound
Method: (§5) Stability of compounds were determined in fresh human whole blood with K2EDTA as the anticoagulant (stored refrigerated at 2-8° C. and used within 7 days of receipt). The experiment was conducted with three replicates for each time point. Whole blood, pre-incubated at 37° C. for 10-15 minutes, was fortified with a solution of test compound for a final concentration of 0.5 μM and mixed for 30 sec. At intervals (0, 0.5, 1 and 2 hr), three 50 μL aliquots were combined with 200 μL (each) of an ice-cold solution of the internal standard (carbutamide 500 ng/mL in acetonitrile). The samples were vortexed for 30 sec and then centrifuged at 16,100 g for 5 min. The supernatant was analyzed by LC-MS/MS. The MS peak area ratio of the test compounds versus the internal standard was calculated and percent unchanged test compound was calculated for each time point using this ratio.

[2] = Stability in simulated intestinal fluid; format: in vitro ADME; conditions: 100 μM, 2 hours at 37° C., percent of the peak area at time zero
Method: Simulated gastric and intestinal fluids containing pepsin and pancreatin respectively were prepared according to the U.S. Pharmacopoeia USP291 procedure (www.pharmacopeia.cn/v29240/usp29nf24s0_ris1s126.html). Compounds (final concentration 100 μM) were incubated in duplicate in the appropriate fluid for 2 hours at 37° C. The samples were quenched with 200 μl cold acetonitrile, vortexed for 30 seconds and then centrifuged at 16,100 g for 10 min. The supernatants were analyzed by HPLC on a C-18 column with UV detection at 252 nm. The time 0 samples were prepared by adding SGF or SIF fluid to the quenching solvent followed by the test compound. Stability of the compounds was determined by peak area of the test compounds after incubation and calculated as percent of the peak area observed at time zero.

Stability in mouse blood = format: in vitro ADME; conditions: on ice, percent unchanged test compound
Method: as §5
The stability in mouse blood was determined on ice at 0, 0.5 and 1 hr as herein.

mouse hepatocytes = assay: Release of active metabolite in mouse hepatocytes; format: in vitro ADME; conditions: 10 μM compound; for MsH AUC: mouse hepatocytes, 1, 4, 8, 12 and 24 hours
Method: as §1, §2, §3, §4

[3] = Liver pharmacokinetics following a single oral dose in CD-1 mice; format: in vivo; conditions: single oral dose 25 mg/kg in PEG 200, CD-1 male mice, given at 1 μmol/kg
Method: (§6) A single oral dose of test compound at 25 mg/kg in PEG 200 (dose volume 5 mL/kg) was administered to nine CD-1 male mice. Five untreated animals were used for the collection of control plasma and liver. Terminal plasma and liver samples were collected from three animals per time point at 4, 12 and 24 hours post dose. Liver specimens were collected from all animals immediately after the incision. Freezing forceps stored in liquid nitrogen were used to freeze the liver before excision.
Liver samples were analyzed for the active species 2′-methylguanosine triphosphate (2′-MeGTP) by LC-MS/MS. 2′-MeGTP levels were assayed by homogenizing (on ice) a known weight of mouse liver with 4× volume of 0.95 M trichloroacetic acid (TCA). Internal standard solution was added to the homogenate followed by neutralization with 20% ammonium hydroxide solution and addition of 500 μL 1% formic acid. The tissue samples were extracted by weak anion exchange solid phase extraction (SPE). Post extraction, the eluates were evaporated under nitrogen, followed by reconstitution before injection onto the LC-MS/MS system. The samples were chromatographed on a Luna NH2 column using a gradient system of ammonium acetate (1 mM to 20 mM and pH 8.0 to pH 10.0) in water and acetonitrile (70:30). The analyte was detected and quantified by tandem mass spectrometry in positive ion mode on an API4000 equipped with a Turbo Ionspray® interface. The calibration range was 10 to 10000 pmol/mL in mouse liver homogenate (50 to 50000 pmol/g of mouse liver).

[4] = Plasma pharmacokinetics following a single oral dose in CD-1 mice; format: in vivo; conditions: single oral dose 25 mg/kg in PEG 200, CD-1 male mice, given at 1 μmol/kg
Method: as §6
Plasma samples were analyzed for 2′-methylguanosine (2′-MeG) by LC-MS/MS. The internal standard (IS) was 2′-MeG-D3. For protein precipitation and extraction, each plasma sample (50 μL) was treated with 500 μL of 0.2% formic acid in acetonitrile and 20 μL of the internal standard working solution. After vortexing and centrifugation, 500 μL of the sample extracts were transferred to a new plate, dried under N2 at ˜28° C. and reconstituted with 75 μL of 0.2% FA in water. The extracts were chromatographed on an Aquasil C18 column using a gradient system of 0.2% formic acid in water and acetonitrile. The analytes were detected and quantified by tandem mass spectrometry in positive ion mode on an MDS Sciex API5000 equipped with a Turbo Ionspray® interface. The calibration range was 0.500 (LLOQ) to 200 ng/mL in mouse plasma.

Structure (SMILES) | EC50 (HCV genotype 1b replicon) [µM] | CC50 (Zluc cells) [µM] | FHH TP Cmax (fresh human hepatocytes) | FHH TP AUC (fresh human hepatocytes) | Stability WB_Human (37° C.; 2 hr) [1] [%] | Stability SIF [2] [%] | Stability WB_Mouse (ice; 1 hr) (Stability in mouse blood) [%] | MsH AUC (mouse hepatocytes) | Ms Liver 2′-MeGTP AUC ([3]; 25 mg/kg) [pmol · hr/g at 1 μmol/kg] | Ms Plasma 2′-MeG AUC ([4]; 25 mg/kg) [pmol · hr/mL at 1 μmol/kg] | Ms Plasma 2′-MeG Cmax ([4]; 25 mg/kg) [pmol/mL at 1 μmol/kg] | MsH Cmax (mouse hepatocytes; mouse hepatocytes) [pmol/mill cells] | Ms Liver 2′-MeGTP AUC [3] [pmol · hr/g at 1 μmol/kg] | Ms Plasma 2′-MeG AUC [4] [pmol · hr/mL at 1 μmol/kg] | Ms Plasma 2′-MeG Cmax [4] [pmol/mL at 1 μmol/kg]
CCOc1nc(N)nc2c1ncn2C1OC2COP(=O)(OCC(NC(=O)OC)C(=O)OC(C)C)OC2C1(C)O (single isomer, unassigned; diastereomer 1) [Compound 14 Diastereomer 1] | < 0.25 | < 50 | 19 pmol/mill cells | 224 pmol · hr/mill cells | 62 | 88 |  |  |  |  |  |  |  |  | 
CCOc1nc(N)nc2c1ncn2C1OC2COP(=O)(Oc3ccc(CC(NC(=O)OC)C(=O)OC(C)C)cc3)OC2C1(C)F (single isomer, unassigned; diastereomer 2) [Compound 13 Diastereomer 2] | < 0.25 | > 50 | 34 pmol/mill cells | 812 pmol · hr/mill cells | 70 | 72 | 1 |  |  |  |  |  |  |  | 
CCOc1nc(N)nc2c1ncn2[C@@H]1O[C@@H]2COP(=O)(OCCC(=O)OC(C)C)O[C@H]2[C@@]1(C)F (single isomer, unassigned; diastereomer 1) [Compound 21 Diastereomer 1] |  |  | BLD^a | BLD^a | 86 | 91 |  | BLD^a |  |  |  |  |  |  | 
CCOC(=O)CCOP1(=O)OC[C@H]2O[C@@H](n3cnc4c(OCC)nc(N)nc43)[C@](C)(F)[C@@H]2O1 (single isomer, unassigned; diastereomer 1) [Compound 8 Diastereomer 1] | < 0.25 | > 50 | BLD^a | BLD^a | 89 | 96 |  |  |  |  |  |  |  |  | 
CCOc1nc(N)nc2c1ncn2[C@@H]1O[C@@H]2COP(=O)(OCCC(=O)OC(C)C)O[C@H]2[C@@]1(C)O (single isomer, unassigned; diastereomer 2) [Compound 22 Diastereomer 2] | < 0.25 | > 50 | 28 pmol/mill cells | 742 pmol · hr/mill cells | 88 | 101 |  | BLD^a |  |  |  |  |  |  | 
CC(C)OC(=O)CCCOP1(=O)OC[C@H]2O[C@@H](n3cnc4c(=O)[nH]c(N)nc43)[C@](C)(F)[C@@H]2O1 (single isomer, unassigned; diastereomer 2) [Compound 6 Diastereomer 2] | < 0.25 | > 50 |  |  |  |  |  | BLD^a | 530 | 54 | 7.2 |  |  |  | 
CC(C)OC(=O)CCCOP1(=O)OC[C@H]2O[C@@H](n3cnc4c(=O)[nH]c(N)nc43)[C@](C)(F)[C@@H]2O1 (single isomer, unassigned; diastereomer 1) [Compound 6 Diastereomer 1] | 1 to 10 | > 50 |  |  |  |  |  | BLD^a | 35 | 13 | 1.3 |  |  |  | 
CCOc1nc(N)nc2c1ncn2[C@@H]1O[C@@H]2COP(=O)(OCCCC(=O)OC(C)C)O[C@H]2[C@@]1(C)F (single isomer, unassigned; diastereomer 2) [Compound 3 Diastereomer 2] |  |  | 146 pmol/mill cells | 4574 pmol · hr/mill cells |  |  |  | 3265 pmol · hr/mill cells |  |  |  | 91 | 3200 | 160 | 17
CCOC(=O)CCOP1(=O)OC[C@H]2O[C@@H](n3cnc4c(OCC)nc(N)nc43)[C@](C)(F)[C@@H]2O1 (single isomer, unassigned; diastereomer 2) [Compound 8 Diastereomer 2] | < 0.25 | > 50 | BLD^a | BLD^a | 34 | 94 |  |  |  |  |  |  |  |  | 
CCOc1nc(N)nc2c1ncn2[C@@H]1O[C@@H]2COP(=O)(OCCCC(=O)OC(C)C)O[C@H]2[C@@]1(C)F (single isomer, unassigned; diastereomer 1) [Compound 3 Diastereomer 1] | < 0.25 | < 50 |  |  | 20.5 | 92 | 14 |  |  |  |  |  |  |  | 
